According to patent publication US20010034373A1, “Low dose modafinil for enhancement of cognitive function” (priority 2000, published 2001):
“Also recorded” adds a separate entry of the source.

Key:
[1] = dose of 200 mg to an adult human; cited from earlier work
adult humans = assay: wakefulness promoting dose extrapolated to adult humans; assay type: in vivo, human; conditions: extrapolation in adult humans
Method: The dosage levels in rats in the studies described herein are reported in mg/kg administered by intraperitoneal injection (i.p.). As described in previous publications, the wakefulness promoting dose of modafinil in rats is highly significant at doses of 100 to 300 mg/kg i.p. (Edgar and Seidel, The Journal of Pharmacology and Experimental Therapeutics, vol. 283, pp 757-769, 1997). The extrapolation in adult humans is a wakefulness promoting dose of 200 mg/day. A dose of 200 mg to an adult human would result in a serum level of about 6.4 μg/ml. […] An effective dose, therefore, is a dose given as a single unit per day in a sustained release formula or given periodically would be that dose that maintains a serum level of from about 0.05 to about 2 μg/ml.

aged rats = assay: performance of a stabilized delayed alternation task at three retention delays in aged rats; assay type: in vivo, rat; set-up: dose or concentration left out as unconfirmed; conditions: 15, 30 or 60 modafinil
Method: In another study, aged rats were tested for performance of a stabilized delayed alternation task at three retention delays. After stabilized performance in training sessions the rats were entered into a drug testing study with […] of modafinil. A trial started with the presentation of a single lever (left or right). […] After the expiration of the delay, the 2 levers were inserted into the chamber and the animal received a food pellet only if it pressed the lever not previously presented (delayed alternation). Incorrect responses (responses on the same lever) were not reinforced. The 3 delays were randomly presented and equally distributed throughout the session. Correct or incorrect responses were followed by retraction of the two levers. […] The test results indicated the response accuracy of the animal after each retention delay, the simple reaction time in the one lever presentation, and the choice reaction time in the two lever presentation. […] Therefore, modafinil had no effect on improving short term memory at these doses.

aged male Wistar rats = conditions: rat, in vivo

## NC(=O)C[S+]([O-])C(c1ccccc1)c1ccccc1 (centres unmarked) [Modafinil, 2-(benzhydrylsulfinyl) acetamide]
[1]
  serum level: about 6.4 μg/ml
Adult humans
  wakefulness promoting dose: 200 mg/day
Aged rats
  effect on improving short term memory: no effect
Aged rats; retention delays 5, 10 or 20 seconds
  number of correct responses at any retention delay: did not significantly affect
Aged male Wistar rats
  choice reaction times: significantly decreased
  general ability of animals to perform the task: failed to improve
  number of correct responses: No effects
  number of correct responses (response accuracy): significantly increased
  number of response omissions: significantly increased
  simple reaction times: No clear effects; also recorded: tended to increase
Aged male Wistar rats; 60 mg/kg
  cognitive function in aged rats: restored cognitive function in the aged rats to the level of the young control rats
